Source: ChEMBL document CHEMBL5724914, “Linking interpersonal differences in gut microbiota composition and drug biotransformation activity” (2024)

Tests used:
[1] = human gut metagenome, 24 h, 2 µM
[2] = (§1) The drug is tested on Z-001 corresponding to mouse gut metagenome with ENA study accession number: PRJEB37062 and ENA sample accession number: ERS12561801 for biotransformation under anaerobic condition. The drug concentrations were measured over 9 timepoints collected between 0 and 24 hours of incubation by liquid-chromatography-coupled mass spectrometry (LC–MS); details: 2 µM
[3] = human gut metagenome, 24 h, 2 µM; remark: listed apart in the source
[4] = human gut metagenome, 24 h, 2 µM; remark: listed apart in the source
[5] = human gut metagenome, 24 h, 2 µM; remark: listed apart in the source
[6] = human gut metagenome, 24 h, 2 µM; remark: listed apart in the source
[7] = as §1, with “WLS-052” for “Z-001”, “human” for “mouse”, “ERS12561747” for “ERS12561801”; details: 2 µM
[8] = human gut metagenome, 24 h, 2 µM; remark: listed apart in the source
[9] = human gut metagenome, 24 h, 2 µM; remark: listed apart in the source
[10] = human gut metagenome, 24 h, 2 µM; remark: listed apart in the source
[11] = human gut metagenome, 24 h, 2 µM; remark: listed apart in the source
[12] = as §1, with “WLS-077” for “Z-001”, “human” for “mouse”, “ERS12561750” for “ERS12561801”; details: 2 µM
[13] = as §1, with “Z-016” for “Z-001”, “ERS12561815” for “ERS12561801”; details: 2 µM
[14] = as §1, with “Z-024” for “Z-001”, “pig” for “mouse”, “ERS12561823” for “ERS12561801”; details: 2 µM
[15] = as §1, with “Z-013” for “Z-001”, “rabbit” for “mouse”, “ERS12561813” for “ERS12561801”; details: 2 µM
[16] = as §1, with “Z-022” for “Z-001”, “ERS12561821” for “ERS12561801”; details: 2 µM
[17] = as §1, with “Z-014” for “Z-001”, “rat” for “mouse”, “ERS12561814” for “ERS12561801”; details: 2 µM
[18] = as §1, with “Z-011” for “Z-001”, “ERS12561811” for “ERS12561801”; details: 2 µM
[19] = as §1, with “Z-007” for “Z-001”, “rat” for “mouse”, “ERS12561807” for “ERS12561801”; details: 2 µM
Also: call rule not given here.

SMILES | Bacterial Biotransformation [1] | Bacterial Biotransformation [2] | Bacterial Biotransformation [3] | Bacterial Biotransformation [4] | Bacterial Biotransformation [5] | Bacterial Biotransformation [6] | Bacterial Biotransformation [7] | Bacterial Biotransformation [8] | Bacterial Biotransformation [9] | Bacterial Biotransformation [10] | Bacterial Biotransformation [11] | Bacterial Biotransformation [12] | Bacterial Biotransformation [13] | Bacterial Biotransformation [14] | Bacterial Biotransformation [15] | Bacterial Biotransformation [16] | Bacterial Biotransformation [17] | Bacterial Biotransformation [18] | Bacterial Biotransformation [19]
COC(=O)C1=C(C)NC(C)=C(C(=O)OC(C)C)C1c1cccc2nonc12 (configuration not stated) [ISRADIPINE] | Compound metabolized | Compound NOT metabolized | Compound metabolized | Compound metabolized | Compound metabolized | Compound NOT metabolized | Compound metabolized | Compound metabolized | Compound metabolized | Compound NOT metabolized | Compound metabolized | Compound NOT metabolized | – | – | – | – | – | – | –
CN1CCc2cccc3c2[C@H]1Cc1ccc(O)c(O)c1-3 [APOMORPHINE] | Compound NOT metabolized | Compound NOT metabolized | Compound NOT metabolized | Compound NOT metabolized | Compound NOT metabolized | Compound NOT metabolized | – | Compound NOT metabolized | Compound NOT metabolized | Compound NOT metabolized | Compound NOT metabolized | Compound NOT metabolized | Compound NOT metabolized | Compound metabolized | Compound metabolized | Compound NOT metabolized | – | – | –
CN(C(=O)CN(CCO)CC(=O)N(C)C(C)(C)Cc1ccccc1)C(C)(C)Cc1ccccc1 [OXETHAZAINE] | Compound metabolized | – | Compound metabolized | Compound metabolized | Compound metabolized | Compound NOT metabolized | Compound metabolized | Compound metabolized | Compound metabolized | Compound metabolized | Compound metabolized | Compound metabolized | – | – | – | – | – | – | –
CN1CCN(CC/C=C2/c3ccccc3Sc3ccc(S(=O)(=O)N(C)C)cc32)CC1 [THIOTHIXENE] | Compound metabolized | – | Compound metabolized | Compound metabolized | Compound metabolized | Compound NOT metabolized | Compound metabolized | Compound metabolized | Compound metabolized | Compound metabolized | Compound metabolized | Compound NOT metabolized | – | – | – | – | – | – | –
C#C[C@]1(O)CC[C@H]2[C@@H]3CCC4=Cc5oncc5C[C@]4(C)[C@H]3CC[C@@]21C [DANAZOL] | – | – | Compound metabolized | Compound metabolized | Compound metabolized | – | Compound metabolized | – | – | – | Compound metabolized | Compound metabolized | Compound NOT metabolized | Compound metabolized | – | Compound metabolized | Compound NOT metabolized | – | –
OC(CCN1CCCCC1)(c1ccccc1)C1CC2C=CC1C2 (configuration not stated) [BIPERIDEN] | Compound NOT metabolized | – | Compound metabolized | Compound NOT metabolized | Compound NOT metabolized | Compound NOT metabolized | Compound NOT metabolized | Compound metabolized | Compound NOT metabolized | Compound NOT metabolized | Compound NOT metabolized | Compound NOT metabolized | – | – | – | – | – | – | –
CS(=O)(=O)O.O.O.O.O=C1Cc2cc(CCN3CCN(c4nsc5ccccc45)CC3)c(Cl)cc2N1 [ZIPRASIDONE MESYLATE] | Compound NOT metabolized | – | Compound metabolized | Compound metabolized | Compound NOT metabolized | Compound NOT metabolized | Compound metabolized | Compound metabolized | Compound NOT metabolized | Compound NOT metabolized | Compound metabolized | Compound NOT metabolized | – | – | – | – | – | – | –
CC(=O)O[C@]1(C(C)=O)CC[C@H]2[C@@H]3C=C(Cl)C4=CC(=O)[C@@H]5C[C@@H]5[C@]4(C)[C@H]3CC[C@@]21C [CYPROTERONE ACETATE] | Compound metabolized | Compound metabolized | Compound metabolized | Compound metabolized | Compound metabolized | Compound metabolized | Compound metabolized | Compound metabolized | Compound metabolized | Compound NOT metabolized | Compound metabolized | Compound metabolized | – | – | – | – | – | Compound metabolized | –
CN1C[C@H](C(=O)N[C@]2(C)O[C@@]3(O)[C@@H]4CCCN4C(=O)[C@H](Cc4ccccc4)N3C2=O)C=C2c3cccc4[nH]cc(c34)C[C@H]21.CN1C[C@H](C(=O)N[C@]2(C)O[C@@]3(O)[C@@H]4CCCN4C(=O)[C@H](Cc4ccccc4)N3C2=O)C=C2c3cccc4[nH]cc(c34)C[C@H]21.O=C(O)C(O)C(O)C(=O)O [ERGOTAMINE TARTRATE] | Compound NOT metabolized | – | Compound metabolized | Compound metabolized | Compound metabolized | Compound NOT metabolized | Compound metabolized | Compound metabolized | Compound metabolized | Compound metabolized | Compound metabolized | Compound metabolized | – | – | – | – | – | – | Compound NOT metabolized
Cc1ccc(/C(=C\CN2CCCC2)c2ccccn2)cc1 [TRIPROLIDINE] | Compound NOT metabolized | Compound NOT metabolized | Compound NOT metabolized | Compound NOT metabolized | Compound NOT metabolized | Compound NOT metabolized | Compound NOT metabolized | Compound metabolized | Compound NOT metabolized | Compound NOT metabolized | Compound NOT metabolized | Compound NOT metabolized | Compound NOT metabolized | Compound NOT metabolized | Compound NOT metabolized | Compound NOT metabolized | Compound NOT metabolized | Compound NOT metabolized | Compound NOT metabolized
Cc1nc2n(c(=O)c1CCN1CCC(c3noc4cc(F)ccc34)CC1)CCCC2O (configuration not stated) [PALIPERIDONE] | Compound metabolized | Compound NOT metabolized | Compound metabolized | Compound metabolized | Compound metabolized | Compound metabolized | Compound metabolized | Compound metabolized | Compound metabolized | Compound metabolized | Compound metabolized | Compound metabolized | Compound NOT metabolized | Compound metabolized | Compound NOT metabolized | Compound NOT metabolized | Compound NOT metabolized | Compound NOT metabolized | –
CNC(=C[N+](=O)[O-])NCCSCc1csc(CN(C)C)n1 [NIZATIDINE] | Compound NOT metabolized | Compound NOT metabolized | Compound metabolized | Compound NOT metabolized | Compound metabolized | Compound NOT metabolized | Compound NOT metabolized | Compound metabolized | Compound metabolized | Compound NOT metabolized | Compound NOT metabolized | Compound NOT metabolized | Compound NOT metabolized | Compound NOT metabolized | Compound NOT metabolized | Compound metabolized | Compound NOT metabolized | Compound metabolized | Compound NOT metabolized
